These results are taken from PMC5853285, “Necessity of Bumped Kinase Inhibitor Gastrointestinal Exposure in Treating Cryptosporidium Infection” (The Journal of Infectious Diseases, 2017).

A short description of data set [1]: Single oral dose pharmacokinetics of BKIs in mice (plasma). The data set is classed as in vivo. The following applies: mouse plasma. The protocol:
Mouse oral PK studies were performed as previously described. Briefly, three female BALB/c mice (10 -12 weeks old) were used in each group. With the exception of 1556, each group of mice received an individual BKI at a dose of 10 mg/kg body weight by oral gavage in 200 μL 70% Tween 80/30% ethanol diluted in saline. The only difference for mice administered 1556 was that the group received a dose of 25 mg/kg. Blood samples were taken by tail bleeding into heparinized tubes at designated time points and centrifuged to obtain plasma. The samples were frozen at -20°C. The plasma samples were prepared by adding acetonitrile + 0.1% formic acid with an internal standard. Calibration curves were generated by spiking standards of each BKI into mouse serum and preparing the standards along with test samples. The PK calculations of Cmax and AUC were performed using Phoenix WinNonlin software (Certara, Princeton, NJ).

Data set [2] can be described thus: Plasma protein binding. The format is in vitro ADME. From the text:
(§1) Information regarding the C. parvum oocysts, generation of BKIs, CpCDPK1 enzyme inhibition, C. parvum growth inhibition by BKIs, plasma protein binding, and neonatal mouse model of C. parvum infection has been described in detail elsewhere. Information on BKI solubility and permeability, Gastroplus modeling, the interferon (IFN) γ knockout (KO) mouse model, and measurement of BKI levels in the GI tract of mice is described in the Supplementary Material. All animal experiments were approved by the Institutional Animal Care and Use Committees at the participating universities (University of Washington, University of Georgia, and University of Arizona).

The subject of data set [3] is Cryptosporidium parvum. The data set is described as follows: C. parvum growth inhibition by BKIs in vitro. The following applies: read-out: BKI EC50 for Inhibition of C. parvum Proliferation. The format is cell-based.
Text: as §1

In data set [4] the test system is Cryptosporidium parvum. The data set is described as follows: Neonatal mouse model of C. parvum infection. The data set is classed as in vivo. Further details: concentration or dose not given beside the values.
Text: as §1

The subject of data set [5] is Cryptosporidium parvum. As to the kind of experiment: IFN-γ KO adult mouse model of C. parvum infection (Nluc oocyst shedding). The conditions noted are these: IFN-γ KO mice, 6 mg/kg once daily oral for 5 days. The data set is classed as in vivo. From the text: The ability to predict in vivo efficacy with BKI ascending colon concentrations was further evaluated in an adult model of C. parvum infection. Female IFN-γ KO mice were infected with transgenic C. parvum strain UGA1 expressing nanoluciferase (Nluc), and the infection was allowed to proceed for 3–5 days. […] To account for daily growth of parasites over the course of the study, the observed RLUs in the vehicle-treated mice were used to simulate the growth of the parasite over the course of the experiment (Figure 4A). On each day of the study, the simulated parasite level was based on both the growth of the parasite and the predicted inhibition by BKI [[22–24]].
The efficacy of BKIs in an adult mouse model of C. parvum infection was tested as previously described. Briefly, all female IFN-γ KO mice (B6.129S7-Ifngtm1Ts/J, Jackson Laboratories), were infected by oral gavage (PO) with 10,000 Nluc expressing C. parvum oocysts in 100 μL DPBS for studies with 1534. For all other studies, mice were infected PO with 1,000 Nlucexpressing C. parvum oocysts. Vehicle control groups and BKI treated groups each contained at least three mice. […] The stool samples were checked for luminescence on the day of collection and RLU readings were standardized to fecal sample weights. […]

The nature of data set [6]: BKI aqueous solubility at pH 2 and 6.5. The data set is classed as physicochemical. The following applies: second of two values; measured at pH 2 and 6.5. The protocol:
Briefly, 1 μL of 20 mM dimethyl sulfoxide (DMSO) stock was added to 199 μL of buffer. Samples were vortexed and allowed to incubate at 25 °C overnight. The next day, each sample was centrifuged at 13800 rpm for 40 minutes at 25 °C. The supernatant was collected and 100 μL of the supernatant was added to 100 μL acetonitrile. Solutions were analyzed by HPLC/UV and were quantified based on a five-point calibration curve for each analyte.

The subject of data set [7] is Cryptosporidium. Further details: method as in PMID 12423984. The conditions noted are these: cited from earlier work.

Values after ≈ are worked out from the molar mass of the structure shown.

As usually defined, the AUC is concentration integrated over time. One may read the Cmax as the peak of the concentration-time curve. Take `CCOc1ccc2cc(-c3nn(CC4CCN(C)CC4)c4ncnc(N)c34)ccc2c1` [BKI 1294]: in data set [1] (single oral dose 10 mg/kg), the AUC is 430 µmol·min/L and the peak level (Cmax) was 800 nM. The “Plasma Protein Binding” value in data set [2] is 84%. In addition, the EC50 in data set [3] came to 2700 nM. The “Reduction in Neonatal Mouse C. parvum Infection” value (from here on “Reduction”) in data set [4] worked out at 56%.

In data set [1] (single oral dose 10 mg/kg), `CCOc1ccc2cc(-c3nn(CC4CCNCC4)c4ncnc(N)c34)ccc2n1` [BKI 1318] registered an AUC of 2208 µmol·min/L and a Cmax of 6500 nM. Also, the “Plasma Protein Binding” value in data set [2] was determined as 55%. In data set [3], the EC50 turned out to be 3200 nM. For the same compound, in data set [4], the “Reduction” value is reported as 65%.

Consider `CCOc1ccc2cc(-c3nn(CC4CCN(C)CC4)c4ncnc(N)c34)ccc2n1` [BKI 1369], for which, in data set [1] (single oral dose 10 mg/kg), the concentration peaked (Cmax) at 300 nM. In data set [2], the “Plasma Protein Binding” value amounted to 37%. Also, the EC50 in data set [3] was 2300 nM. Besides, the “Reduction” value in data set [4] amounted to 70%.

As for `CC(C)Cn1nc(-c2ccc3cc(OC4CC4)ccc3c2)c2c(N)ncnc21` [BKI 1534], in data set [1] (single oral dose 10 mg/kg), the AUC was determined as 58 µmol·min/L and the highest level (Cmax) was 200 nM. In addition, the “Plasma Protein Binding” value in data set [2] is listed as 99%. Moreover, the “in vivo efficacy (oocyst shedding, RLU)” value in data set [5] is “lack of BKI efficacy”. Moreover, the “Solubility (second value)” value in data set [6] is 2 µM (≈ 0.747 µg/mL). Moreover, the EC50 in data set [3] was determined as 2200 nM. In addition, in data set [4], the “Reduction” value was 61%.

In data set [1] (single oral dose 25 mg/kg), `CC(C)Cn1nc(-c2ccc3nc(OC4CC4)ccc3c2)c2c(N)ncnc21` [BKI 1556] returned an area under the curve (AUC) of 2082 µmol·min/L and a maximum concentration (Cmax) of 7000 nM. Also, the “Plasma Protein Binding” value in data set [2] was 86%. Moreover, the “Solubility (second value)” value in data set [6] is recorded as 7 µM (≈ 2.62 µg/mL). Besides, in data set [3], the EC50 was 3200 nM. Further, the “Reduction” value in data set [4] is recorded as 61%.

In data set [1] (single oral dose 10 mg/kg), `Nc1ncnc2c1c(-c1ccc3nc(OC4CC4)ccc3c1)nn2CC1CCOCC1` [BKI 1557] displayed an exposure (AUC) of 67 µmol·min/L and a Cmax of 900 nM. Besides, the “Plasma Protein Binding” value in data set [2] came out at 84%. Further, in data set [6], the “Solubility (second value)” value stood at 17 µM (≈ 7.08 µg/mL). In data set [3], the EC50 came to 5500 nM. The “Reduction” value in data set [4] came out at 33%.

For `CC(C)(O)Cn1cc(-c2ccc3nc(OC4CC4)ccc3c2)c2c(N)ncnc21` [BKI 1649], in data set [1] (single oral dose 10 mg/kg), the area under the curve (AUC) was 6416 µmol·min/L and the maximum concentration (Cmax) was determined as 4900 nM. In addition, the “Plasma Protein Binding” value in data set [2] was found to be 90%. For the same compound, the “Solubility (second value)” value in data set [6] turned out to be 83 µM (≈ 32.3 µg/mL). The EC50 in data set [3] was 2300 nM. Moreover, in data set [4], the “Reduction” value is 56%.

As to `CC(=O)Oc1ccccc1C(=O)Nc1ncc([N+](=O)[O-])s1` [nitazoxanide], in data set [7] (human immunodeficiency virus–infected individuals), the efficacy entry is “no efficacy”. The response rate in data set [7] (malnourished children with cryptosporidiosis) is reported as 30%.
